Reference: the supplement of paper PMC10307832

Experiments:
Test in all cases: relative viability (nuclei count vs DMSO), 5 days (fraction); higher = more cells survive
[1] = test system: HARA
Procedure, shortened: (§1)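 After 5 days of treatment, lung cancer cells in 1536-well plates were fixed and stained in a single step (final 0.05% Triton X-100, 1% formaldehyde, 1 ug/ml Hoechst) and their nuclei counted on 4× images. Treatment had been applied by pin tool the day after seeding as one drug alone or as a fixed anchor-drug dose with five library-drug doses (not always all listed) in √10 steps. Relative viability is the nuclei count of treated wells divided by that of vehicle wells, and values are medians of duplicate plates.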

[2] = test system: NCI-H1975
Procedure, shortened: as §1

[3] = test system: NCI-H1792
Procedure, shortened: as §1

[4] = test system: NCI-H1437
Procedure, shortened: as §1

[5] = test system: SW 900
Procedure, shortened: as §1

[6] = test system: NCI-H596
Procedure, shortened: as §1

[7] = test system: HCC-44
Procedure, shortened: as §1

[8] = test system: NCI-H838
Procedure, shortened: as §1

[9] = test system: NCI-H650
Procedure, shortened: as §1

[10] = test system: NCI-H522
Procedure, shortened: as §1

[11] = test system: A-427
Procedure, shortened: as §1

[12] = test system: NCI-H1666
Procedure, shortened: as §1

[13] = test system: LCLC-103H
Procedure, shortened: as §1

[14] = test system: EKVX
Procedure, shortened: as §1

[15] = test system: NCI-H23
Procedure, shortened: as §1

[16] = test system: NCI-H441
Procedure, shortened: as §1

[17] = test system: 201T
Procedure, shortened: as §1

[18] = test system: HCC-15
Procedure, shortened: as §1

[19] = test system: LK-2
Procedure, shortened: as §1

[20] = test system: HCC-827
Procedure, shortened: as §1

Structure (SMILES): Clc1ccc(Nc2nnc(Cc3ccncc3)c3ccccc23)cc1 [Vatalanib] + NC(=O)Nc1cc(-c2cccc(F)c2)sc1C(=O)N[C@H]1CCCNC1 [AZD7762] (partner 0.2 µM)
- relative viability ([1]; first compound 0.04 µM): 0.41
- relative viability ([1]; first compound 0.1265 µM): 0.473
- relative viability ([1]; first compound 0.4 µM): 0.173
- relative viability ([1]; first compound 1.265 µM): 0.246
- relative viability ([1]; first compound 4 µM): 0.34
- relative viability ([2]; first compound 0.04 µM): 0.731
- relative viability ([2]; first compound 0.1265 µM): 0.66
- relative viability ([2]; first compound 0.4 µM): 0.59
- relative viability ([2]; first compound 1.265 µM): 0.492
- relative viability ([2]; first compound 4 µM): 0.568
- relative viability ([3]; first compound 0.04 µM): 0.723
- relative viability ([3]; first compound 0.1265 µM): 0.663
- relative viability ([3]; first compound 0.4 µM): 0.728
- relative viability ([3]; first compound 1.265 µM): 0.503
- relative viability ([3]; first compound 4 µM): 0.581
- relative viability ([4]; first compound 0.04 µM): 1.07
- relative viability ([4]; first compound 0.1265 µM): 1.08
- relative viability ([4]; first compound 0.4 µM): 1.18
- relative viability ([4]; first compound 1.265 µM): 1.06
- relative viability ([4]; first compound 4 µM): 0.997
- relative viability ([5]; first compound 0.04 µM): 0.596
- relative viability ([5]; first compound 0.1265 µM): 0.653
- relative viability ([5]; first compound 0.4 µM): 0.567
- relative viability ([5]; first compound 1.265 µM): 0.69
- relative viability ([5]; first compound 4 µM): 0.6
- relative viability ([6]; first compound 0.04 µM): 1.11
- relative viability ([6]; first compound 0.1265 µM): 1.25
- relative viability ([6]; first compound 0.4 µM): 1.18
- relative viability ([6]; first compound 1.265 µM): 1.1
- relative viability ([6]; first compound 4 µM): 0.907
- relative viability ([7]; first compound 0.04 µM): 1.01
- relative viability ([7]; first compound 0.1265 µM): 1.03
- relative viability ([7]; first compound 0.4 µM): 0.959
- relative viability ([7]; first compound 1.265 µM): 0.983
- relative viability ([7]; first compound 4 µM): 1
- relative viability ([8]; first compound 0.04 µM): 1.07
- relative viability ([8]; first compound 0.1265 µM): 0.882
- relative viability ([8]; first compound 0.4 µM): 1
- relative viability ([8]; first compound 1.265 µM): 0.867
- relative viability ([8]; first compound 4 µM): 0.87
- relative viability ([9]; first compound 0.04 µM): 1.03
- relative viability ([9]; first compound 0.1265 µM): 0.916
- relative viability ([9]; first compound 0.4 µM): 0.937
- relative viability ([9]; first compound 1.265 µM): 0.883
- relative viability ([9]; first compound 4 µM): 0.907
- relative viability ([10]; first compound 0.04 µM): 0.848
- relative viability ([10]; first compound 0.1265 µM): 0.794
- relative viability ([10]; first compound 0.4 µM): 0.777
- relative viability ([10]; first compound 1.265 µM): 0.74
- relative viability ([10]; first compound 4 µM): 0.808
- relative viability ([11]; first compound 0.04 µM): 0.797
- relative viability ([11]; first compound 0.1265 µM): 0.736
- relative viability ([11]; first compound 0.4 µM): 0.761
- relative viability ([11]; first compound 4 µM): 0.64
- relative viability ([12]; first compound 0.04 µM): 0.733
- relative viability ([12]; first compound 0.1265 µM): 0.874
- relative viability ([12]; first compound 0.4 µM): 0.855
- relative viability ([12]; first compound 1.265 µM): 0.694
- relative viability ([12]; first compound 4 µM): 0.762
- relative viability ([13]; first compound 0.04 µM): 0.797
- relative viability ([13]; first compound 0.1265 µM): 0.714
- relative viability ([13]; first compound 0.4 µM): 0.803
- relative viability ([13]; first compound 1.265 µM): 0.806
- relative viability ([13]; first compound 4 µM): 0.725
- relative viability ([14]; first compound 0.04 µM): 0.646
- relative viability ([14]; first compound 0.1265 µM): 0.623
- relative viability ([14]; first compound 0.4 µM): 0.679
- relative viability ([14]; first compound 1.265 µM): 0.679
- relative viability ([14]; first compound 4 µM): 0.64
- relative viability ([15]; first compound 0.04 µM): 0.269
- relative viability ([15]; first compound 0.1265 µM): 0.229
- relative viability ([15]; first compound 0.4 µM): 0.228
- relative viability ([15]; first compound 1.265 µM): 0.259
- relative viability ([15]; first compound 4 µM): 0.266
- relative viability ([16]; first compound 0.04 µM): 1.05
- relative viability ([16]; first compound 0.1265 µM): 1.18
- relative viability ([16]; first compound 0.4 µM): 1.19
- relative viability ([16]; first compound 1.265 µM): 1.02
- relative viability ([16]; first compound 4 µM): 0.892
- relative viability ([17]; first compound 0.04 µM): 0.611
- relative viability ([17]; first compound 0.1265 µM): 0.57
- relative viability ([17]; first compound 0.4 µM): 0.621
- relative viability ([17]; first compound 1.265 µM): 0.648
- relative viability ([17]; first compound 4 µM): 0.57
- relative viability ([18]; first compound 0.04 µM): 1.18
- relative viability ([18]; first compound 0.1265 µM): 1.23
- relative viability ([18]; first compound 0.4 µM): 1.13
- relative viability ([18]; first compound 1.265 µM): 1.32
- relative viability ([18]; first compound 4 µM): 1.54
- relative viability ([19]; first compound 0.04 µM): 0.394
- relative viability ([19]; first compound 0.1265 µM): 0.412
- relative viability ([19]; first compound 0.4 µM): 0.496
- relative viability ([19]; first compound 1.265 µM): 0.353
- relative viability ([19]; first compound 4 µM): 0.446
- relative viability ([20]; first compound 0.04 µM): 0.187
- relative viability ([20]; first compound 0.1265 µM): 0.282
- relative viability ([20]; first compound 1.265 µM): 0.183
- relative viability ([20]; first compound 4 µM): 0.194
